In brackets after ≈: the same amount, converted by molar mass. Read-outs that look alike come from different tables or passages of the source.
Key:
[1] = type: in vivo, human
ethanol treated spores = type: cell-based; details: lysozyme addition to the plates (2 ug/ml); Sweet B or M2GSC media (FIG. 14)
M. morganii isolates = assay: microbe, parasite or virus in culture; type: cell-based; details: Morganella morganii
P. pennerii isolates = assay: organism not typed; type: cell-based, Proteus pennerii
[2] = 10 patients with recurrent C. difficile treated with ethanol treated spore preparations

Compound	% of Patients OTU Engrafts [1, 2] [%]	other results
Clostridium_disporicum	30	
Clostridium_symbiosum	50	
Clostridium_bartlettii	70	
Bacteroides_fragilis	30	
lysozyme		effect on germination (ethanol treated spores): small effect
C[C@@H](O)[C@H]1C(=O)N2C(C(=O)O)=C(SCCN=CN)C[C@H]12 [imipenem]		MIC (M. morganii isolates): 2 to 4 µg/mL (≈ 6.68 to 13.4 µM); MIC (P. pennerii isolates): 4 to 8 µg/mL (≈ 13.4 to 26.7 µM)
Clostridium_clostridioforme	60	
Clostridium_mayombei	50	
Clostridium_butyricum		% of Patients OTU Engrafts ([1]; human, in vivo): 20%
